The record followed here is patent US20120322768A1, “COMPOUNDS, COMPOSITIONS AND METHODS FOR TREATING PROTOZOAN INFECTIONS” (QUEEN MARY & WESTFIELD COLLEGE, priority 2009, published 2012).

The test system of data set [1] is bloodstream form T. brucei. Description: microbe, parasite or virus in culture. It counts as cell-based. To be noted: Trypanosoma brucei.
In the next data set the test system is THP-1 cells. Briefly: cells. Particulars: Homo sapiens, THP-1, 144 h, read-out: IC50 THP1.
In data set [2] the test system is insect form Leishmania major. Briefly: microbe, parasite or virus in culture. The format is cell-based. To be noted: 144 h, read-out: IC50 L. major.
Data set [3] has as its system intracellular form T. cruzi. Description: microbe, parasite or virus in culture. It counts as cell-based. To be noted: Trypanosoma cruzi, Vero, 72 h, read-out: IC50 T. cruzi.
For another data set, the system named is Vero cells. Description: cells. It counts as cell-based. Particulars: Chlorocebus sabaeus, read-out: IC50 Vero cells.
Data set [4] can be described thus: Stability in phosphate buffer (HPLC). It counts as physicochemical. To be noted: pH 7.4, 100 mM phosphate buffer, three-day incubation at 37° C., 100 μM. The method, then:
(§1) Select nitrobenzyl phosphoramide mustards (100 μM) were incubated in pH 7.4 100 mM phosphate buffer or in whole human blood at 37° C. Aliquots were withdrawn at different time intervals and mixed with acetonitrile (1-1 for phosphate buffer and 1-5 for whole blood). The samples were centrifuged and analyzed by HPLC.

Data set [5] can be described thus: Stability in whole human blood (HPLC). It counts as in vitro ADME. Particulars: three-day incubation at 37° C., 100 μM. The procedure: as §1
Substrate in data set [6]: CC1CS(=O)(=O)CCN1/N=C/c1ccc([N+](=O)[O-])o1
Description: TbNTR enzyme activity by NADH oxidation (absorbance at 340 nm). It counts as biochemical, T. brucei. To be noted: other: apparent; NADH 100 μM, substrate 2-75 μM.
Description: Enzyme activity was measured by following the change in absorbance at 340 nm due to NADH oxidation (34, 35). A reaction mixture (1 ml) containing 50 mM Tris-Cl pH 7.0, 100 μM NADH and NBPM (Tables 1 and 2) was incubated at room temperature for 5 min. The background rate of NADH oxidation was determined and the reaction initiated by the addition of 20 μg TbNTR. The enzyme activity was calculated using c of 6,220 M^−1 cm^−1. The absorbance spectrum (320-600 nm) for each NBPM was determined before.

Where [7] appears, read: 72 h, read-out: IC50 T. bruccei.
[8] abbreviates: read-out: IC50 against bloodstream form T. brucei.

Read-outs that look alike come from different tables or passages of the source. Some results are limits rather than exact numbers.

For `NP(=O)(OCc1ccc([N+](=O)[O-])cc1)N(CCCl)CCCl` (centres unmarked) [LH7], the IC50 (as a rule, the midpoint of a concentration-inhibition curve) in data set [1] (setting [7]) amounted to 3.4 ± 0.3 µM; with THP-1 cells it was 66 ± 0.8 µM.
Consider `NP(=O)(OCc1ccc([N+](=O)[O-])cc1F)N(CCCl)CCCl` (centres unmarked) [LH32, 2-Fluoro-4-nitrobenzyl phosphoramide mustard], for which the IC50 is 0.268 ± 0.008 µM in data set [1] (setting [7]); 0.268 ± 0.008 µM in data set [1] (setting [8]); 4.72 ± 0.23 µM in data set [2]; 9.54 ± 0.27 µM in data set [3]; greater than 100 µM with Vero cells; 20.3 ± 1.8 µM in the data set with THP-1 cells.
Regarding `NP(=O)(OCc1ccc([N+](=O)[O-])cc1C(F)(F)F)N(CCCl)CCCl` (centres unmarked) [LH33, 2-Trifluoromethyl-4-nitrobenzyl phosphoramide mustard], the IC50 was 0.149 ± 0.02 µM in data set [1] (setting [7]); 0.149 ± 0.02 µM in data set [1] (setting [8]); 5.88 ± 0.28 µM in data set [2]; 7.97 ± 1.13 µM in data set [3]; greater than 100 µM in the data set with Vero cells; 19 ± 1.9 µM with THP-1 cells.
As for `NP(=O)(OCc1ccc([N+](=O)[O-])cc1Cl)N(CCCl)CCCl` (centres unmarked) [LH34, 2-Chloro-4-nitrobenzyl phosphoramide mustard], the half-inhibitory concentration (IC50) in data set [1] (setting [7]) is 0.008 ± 0.001 µM; in data set [1] (setting [8]), less than 0.01 µM; in data set [2], 3.1 ± 0.28 µM; in data set [3], 9.14 ± 0.54 µM; with Vero cells it was greater than 100 µM; in the data set with THP-1 cells, 10 ± 1.2 µM. For the same molecule, in data set [4], the “Stability in phosphate buffer” value is reported as “stable”. Moreover, in data set [5], the “change in peak area in whole human blood” value is “less than 30%”.
`NP(=O)(OCc1c(F)cc([N+](=O)[O-])cc1F)N(CCCl)CCCl` (centres unmarked) [LH37, 2,6-Difluoro-4-nitrobenzyl phosphoramide mustard]: the 50% inhibitory concentration (IC50) was 0.007 µM in data set [1] (setting [7]); less than 0.01 µM in data set [1] (setting [8]); 1.29 ± 0.08 µM in data set [2]; 0.99 ± 0.01 µM in data set [3]; greater than 100 µM with Vero cells; 6.9 µM with THP-1 cells. Further, in data set [4], the “Stability in phosphate buffer” value is given as “completely stable”. Besides, the “Stability in human whole blood” value in data set [5] was “completely stable”.
As for `CC1CS(=O)(=O)CCN1/N=C/c1ccc([N+](=O)[O-])o1` (centres unmarked) [Nifurtimox, reference compound], in the data set on THP-1 cells, the IC50 amounted to 64.8 ± 1.5 µM.
As to `Nc1nc(N)nc(Nc2ccc([As]3SCC(CO)S3)cc2)n1` (centres unmarked) [melarsoprol, reference compound], the half-inhibitory concentration (IC50) in data set [1] (read-out: drug sensitivity (IC50)) is roughly 4 µM.

B1: T. brucei NTR (TbNTR) (Trypanosoma brucei brucei TREU927) (protein)
chain: DAFIRVVERRHSSKRFDSSRPVDHTLIARLLEATTRAPTAFNLQPWVAIVVHETSQRGALSHAALDQPQPREAPVTVVFAGDMEPEWRAPAALELGLNSGYYHPLYGAAYLRLVYYHLHGGPFGSMAKAKSCISSWYSNATGTPLLSVPTTMQGYAWKQAMIPATTFIYAATAAGLDTAILEGFDEAKVREVVGLPERYTVPVIISVGYKKADEQGKPPVRSPRFSTGSLVRWNRF
For B1, in data set [6], the Km (usually the substrate concentration at which the rate is half of its maximum) amounted to 53.1 ± 15.2 µM; the Vmax (as a rule, the rate approached at saturating substrate) turned out to be 0.423 µmol/min/mg; the catalytic efficiency (kcat/Km) (in general, the turnover number divided by the Michaelis constant) is 3400 M⁻¹ s⁻¹.
